{"source": "patent US20120196858A1", "about": "“METHOD OF PROMOTING APOPTOSIS AND INHIBITING METASTASIS” (Poniard Pharmaceuticals ,Inc., priority 2009, published 2012)", "origin": "cited, not measured here", "system": "lung carcinoma xenografts", "conditions": "previous studies; cited from earlier work", "data": [{"compound": "CN(c1ncccc1CNc1nc(Nc2ccc3c(c2)CC(=O)N3)ncc1C(F)(F)F)S(C)(=O)=O", "note": "[PF-562,271]", "values": [{"measurement": "tumor microvessel density", "value": "reduced tumor microvessel density"}]}]}
